As usually defined, the IC50 is the point on the concentration scale where inhibition reaches its midpoint.

Molecules are shown by their SMILES.

This note sets out measurements from patent US20230192703A1, “Polycyclic amide derivative as CDK9 inhibitor, preparation method therefor and use thereof” (Suzhou AlphaMa Biotechnology Co., Ltd., priority 2020, published 2023).

One experiment deals with T1, CDK9 kinase (Homo sapiens, UniProt P50750).
T1 construct: purchased Millipore 14-685M
Briefly: Inhibitory effect on the kinase activity of CDK9 in vitro. It counts as biochemical. Particulars: CDK9 kinase (Millipore), CTD3 substrate polypeptide, Caliper. The method, then:
The detection of the inhibitory effect of the compounds of the present disclosure on the kinase activity of CDK9 in vitro was determined by the following method:
Compound preparation: The compound was accurately weighed and dissolved in DMSO (Sigma, D2650) to a concentration of 100 um for later use. The compound was diluted to 5-fold of a desired highest concentration, and diluted 4-fold into 6 concentration gradients, allowing the final concentration of the compound in the reaction system to be 100, 25, 6.25, 1.56, 0.39, 0.098 nM. 5 ul was taken to a 384-well plate (Corning, 4512).
Detection: Data was collected by Caliper.
Calculation: The IC50 value was calculated by Graphpad prism 5.0 software according to the concentration of the compound and the corresponding signal value.

For a further experiment, the system named is Mv4-11 cells. Briefly: Inhibition of the proliferation of Mv4-11 cells (CCK8). Particulars: Mv4-11 cell proliferation, CCK8 OD450. It counts as cell-based. The method, then: The inhibition effect of the compounds of the present disclosure on the proliferation of Mv4-11 cells (ATCC:CRL-9591TM) in vitro was determined by the following method:
Cell inoculation: Mv4-11 cells with good growing state in logarithmic growth phase were inoculated into a 96-well plate at 20000 cells per well and 50 uL, and cultured at 37° C. and under 5% CO2 condition for 2-4 h. Administration: The compound was diluted with 1640 medium containing 10% FBS and 1% PS: 0.4 uL of the compound with an initial concentration of 1 mM was placed in a dilution plate, each added with 199.6 uL of the above culture medium, and gradiently diluted 4-fold, so that the final concentration in the added cell was 1000, 250, 62.5, 15.625, 3.91, 0.98, 0.24, 0.06 nM. 50 μL of the medium containing the compound was sequentially added, and it was placed in a 37° C., 5% CO2 cell incubator for 48 hours.
Detection: 10 uL CCK8 (Dojindo, CK 04) solution was added to each well, incubated in 37° C. 5% CO2 cell incubator for 2 hours, and then the OD450 value was read by Synegry H1 (BioTek) multimode microplate reader.
Calculation: The IC50 value was calculated using Graphpad prism 5.0 software according to the concentration of the compound and the corresponding signal value.

T1 sequence (P50750 whole entry): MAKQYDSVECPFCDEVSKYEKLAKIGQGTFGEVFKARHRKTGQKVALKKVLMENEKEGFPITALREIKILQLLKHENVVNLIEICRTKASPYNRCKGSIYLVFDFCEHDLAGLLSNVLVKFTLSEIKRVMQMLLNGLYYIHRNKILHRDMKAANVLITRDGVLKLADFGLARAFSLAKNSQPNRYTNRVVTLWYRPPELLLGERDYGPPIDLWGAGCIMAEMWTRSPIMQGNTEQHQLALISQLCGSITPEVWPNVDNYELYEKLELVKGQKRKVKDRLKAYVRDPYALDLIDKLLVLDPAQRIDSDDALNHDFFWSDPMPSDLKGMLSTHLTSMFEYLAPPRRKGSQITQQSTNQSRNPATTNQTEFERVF
T1 sequence (O60563 whole entry partner): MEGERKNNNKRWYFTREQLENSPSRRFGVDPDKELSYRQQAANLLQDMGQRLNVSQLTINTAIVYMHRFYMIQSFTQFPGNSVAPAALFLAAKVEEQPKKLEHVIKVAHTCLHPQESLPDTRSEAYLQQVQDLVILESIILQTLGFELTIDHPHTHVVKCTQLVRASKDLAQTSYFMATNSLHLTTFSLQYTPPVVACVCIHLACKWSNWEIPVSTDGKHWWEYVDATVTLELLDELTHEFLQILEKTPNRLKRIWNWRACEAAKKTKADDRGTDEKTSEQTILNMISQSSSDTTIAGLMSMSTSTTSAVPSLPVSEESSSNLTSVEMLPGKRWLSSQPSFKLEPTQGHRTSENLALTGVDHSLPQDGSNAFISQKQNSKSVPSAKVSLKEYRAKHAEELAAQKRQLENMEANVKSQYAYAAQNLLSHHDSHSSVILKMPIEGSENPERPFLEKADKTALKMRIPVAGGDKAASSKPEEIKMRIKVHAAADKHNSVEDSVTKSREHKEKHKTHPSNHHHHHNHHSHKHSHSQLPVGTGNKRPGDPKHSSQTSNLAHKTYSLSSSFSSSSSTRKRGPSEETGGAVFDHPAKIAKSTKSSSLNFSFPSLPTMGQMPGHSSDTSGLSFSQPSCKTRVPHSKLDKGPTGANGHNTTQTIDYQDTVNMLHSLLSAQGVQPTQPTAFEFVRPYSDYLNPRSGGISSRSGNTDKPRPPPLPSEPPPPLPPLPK

With `CC(=O)N1C[C@H]2CC(C(=O)Nc3cc(-c4cc(C(N)=O)n5c4CC(C)(C)C5)ccn3)C[C@H]2C1` (single isomer, unassigned) [Compound 32-1], the results for the IC50 against CDK9 kinase and with Mv4-11 cells (48 hours) were 4.8 nM and 3.5 nM, respectively.

With `CC(=O)N1C[C@H]2CC(C(=O)Nc3cc(-c4cc(C(N)=O)n5c4CC(C)(C)C5)ccn3)C[C@H]2C1` (single isomer, unassigned) [Compound 32-2], the IC50 turned out to be 2.8 nM on CDK9 kinase and 0.9 nM in the experiment on Mv4-11 cells (48 hours).

For the compound `CC(=O)N[C@@H]1CCC[C@H](C(=O)Nc2cc(-c3cc(C#N)n4c3CC(C)(C)C4)c(Cl)cn2)C1` [Compound 1, (1S,3R)-3-acetamido-N-(5-chloro-4-(5-cyano-2,2-dimethyl-2,3-dihydro-1H-pyrrolizin-7-yl)pyridin-2-yl)cyclohexane-1-carboxamide], the IC50 at CDK9 kinase turned out to be 2.1 nM; in the experiment on Mv4-11 cells (Homo sapiens, MV4-11, 48 h) it was 1.6 nM.

In the case of `CC(=O)N[C@@H]1CCC[C@H](C(=O)Nc2cc(-c3cc(C(N)=O)n4c3CC(C)(C)C4)c(Cl)cn2)C1` [Compound 2, 7-(2-((1S,3R)-3-acetylaminocyclohexane-1-carboxamido)-5-chloropyridin-4-yl)-2,2-dimethyl-2,3-dihydro-1H-pyrrolizine-5-carboxamide], the IC50 at CDK9 kinase is 2.8 nM; with Mv4-11 cells (Homo sapiens, MV4-11, 48 h), 27.6 nM.

Regarding `C[C@H](N)C(=O)N1C[C@H]2CC(C(=O)Nc3cc(-c4cnn5c4CC(C)(C)C5)c(Cl)cn3)C[C@H]2C1` (stereo partly drawn) [Compound 5, (3aR,6aS)-2-(L-alanyl)-N-(5-chloro-4-(5,5-dimethyl-5,6-dihydro-4H-pyrrolo[1,2-b]pyrazol-3-yl)pyridin-2-yl)octahydrocyclopenta[c]pyrrole-5-carboxamide], the IC50 on CDK9 kinase worked out at 2.8 nM; in the experiment with Mv4-11 cells (Homo sapiens, MV4-11, 48 h), 7.6 nM.

`C[C@@H](N)C(=O)N1C[C@H]2CC(C(=O)Nc3cc(-c4cnn5c4CC(C)(C)C5)c(Cl)cn3)C[C@H]2C1` (stereo partly drawn) [Compound 6, (3aR,6aS)-2-(D-alanyl)-N-(5-chloro-4-(5,5-dimethyl-5,6-dihydro-4H-pyrrolo[1,2-b]pyrazol-3-yl)pyridin-2-yl)octahydrocyclopenta[c]pyrrole-5-carboxamide]: the IC50 against CDK9 kinase is 3.7 nM; in the experiment with Mv4-11 cells (Homo sapiens, MV4-11, 48 h) it was 5.4 nM.

For the compound `CC1(C)Cc2c(-c3cc(NC(=O)[C@@H]4C[C@H]5C[C@H](C(N)=O)C[C@H]5C4)ncc3Cl)cc(C(N)=O)n2C1` [Compound 15-1, (2s,3aR,5r,6aS)-N-(4-(5-carbamoyl-2,2-dimethyl-2,3-dihydro-1H-pyrrolizin-7-yl)-5-chloropyridin-2-yl)octahydropentalene-2,5-dicarboxamide], the IC50 against CDK9 kinase came out at 10.1 nM; in the experiment with Mv4-11 cells (Homo sapiens, MV4-11, 48 h) it was 7.9 nM.

Consider `CC1(C)Cc2c(-c3cc(NC(=O)[C@H]4C[C@H]5C[C@@H](C(N)=O)C[C@H]5C4)ncc3Cl)cc(C(N)=O)n2C1` [Compound 15-2, (2r,3aR,5s,6aS)-N-(4-(5-carbamoyl-2,2-dimethyl-2,3-dihydro-1H-pyrrolizin-7-yl)-5-chloropyridin-2-yl)octahydropentalene-2,5-dicarboxamide], for which the IC50 came out at 3.7 nM against CDK9 kinase and 14.3 nM in the experiment on Mv4-11 cells (Homo sapiens, MV4-11, 48 h).

In the case of `CC(=O)N[C@@H]1CCC[C@H](C(=O)Nc2cc(-c3cc(C(N)=O)c4n3CC(C)(C)C4)c(Cl)cn2)C1` [Compound 17, 5-(2-((1S,3R)-3-acetylaminocyclohexane-1-carboxamido)-5-chloropyridin-4-yl)-2,2-dimethyl-2,3-dihydro-1H-pyrrolizine-7-carboxamide], the half-inhibitory concentration (IC50) on CDK9 kinase came to 4.9 nM; with Mv4-11 cells (Homo sapiens, MV4-11, 48 h), 36.1 nM.

With `CC(=O)N[C@@H]1CCC[C@H](C(=O)Nc2cc(-c3cc(C#N)c4n3CC(C)(C)C4)c(F)cn2)C1` [Compound 27, (1S,3R)-3-acetamido-N-(4-(7-cyano-2,2-dimethyl-2,3-dihydro-1H-pyrrolizin-5-yl)-5-fluoropyridin-2-yl)cyclohexane-1-carboxamide], the IC50 amounted to 2.2 nM against CDK9 kinase and 3.5 nM in the experiment with Mv4-11 cells (Homo sapiens, MV4-11, 48 h).
